Test results from patent US20250114331A1, “CONCURRENT TARGETING OF ONCOGENIC PATHWAYS TO ENHANCE CHEMOTHERAPY AND IMMUNOTHERAPY” (THE JOHNS HOPKINS UNIVERSITY, priority 2021, published 2025).
Entries after “also recorded” stand apart in the source; their conditions may differ. Like-named read-outs stand apart in the source and are kept apart here.

Key:
[1] = system: MB 49, UPPL595 and BBN975; assay: Cell proliferation, sphere formation and RT-qPCR of CSC markers in VP treated mouse UCB cell lines; assay type: cell-based; settings: 1 μM
Method: Cell viability assay. Cell proliferation and viability were evaluated using alamarBlue™ Cell Viability Reagent (ThermoFischer Scientific). For cell proliferation assay, after cells (5×10^3/well) were seeded into 96-well plates with culture media containing 10% FBS, the optical density of each well was measured at desired time interval, following the manufacturers protocol. The absorbance was measured by a Spectra Max 250 Plate Reader (Molecular Devices). Cell viability were calculated as percentage over control. Sphere formation assay. Sphere formation was induced by culturing cells (2×10^4/well) in DMEM/Ham's F12 50/50 Mix (Mediatech) supplemented with B-27 (Life Technologies), 20 ng/mL FGF-basic (Peprotech), 20 ng/mL EGF (Peprotech). Cell culture was performed in ultra-low attachment 6 well plates (Corning, Lowell, USA) for 10 days. The medium was replaced every other day. Sphere formation was evaluated using the inverted phase-contrast microscope. RNA extraction and quantitative reverse transcriptase polymerase chain reaction (Q-RT-PCR). Total RNA from cell lines was isolated using the RNeasy Plus Mini Kit (Qiagen, Germantown, USA), according to the manufacturer's protocol. […] The expression levels were quantified relative to β-actin using the 2−ΔΔCt method.

T24, BFTC905 and BFTC909 = assay: Lipid droplet quantification after VP, human UCB cell lines; assay type: cell-based; settings: VP treated
From the text: YAP1 influences the accumulation of lipid droplets in cancer cells. […] Therefore, apart from investigating the altered regulation of intracellular signaling cascades, the present inventors also studied cellular metabolism in response to YAP1 modulation. […] It was reported that FABP4 is a critical molecule in accumulation of lipid droplets in the intracellular compartments (45). […] It was also observed that when the culture media was supplemented with oleic acid (commonly used as an inducer for lipid droplet formation), there is an increase accumulation of lipid droplets in the YAP1 expressing cells compared to the KD cells (FIG. 29C). […] As increased amount of L-lactate correlated with more glycolysis and poor prognosis of cancer (46), the present inventors quantified L-lactate in mouse and human UCB cells with YAP1 modulation.

H1299 and H1437 cells = assay: Immunoblotting of YAP1, STAT3 and pSTAT3 after drug treatment; assay type: cell-based, human
Method: Western blotting. Cells were dissolved in RIPA buffer (Thermo Fisher Scientific) supplemented with proteinase inhibitor and phosphatase inhibitor cocktails (Roche, Mannheim, Germany). After total protein lysate was electrophoretically transferred onto PVDF membrane, the membrane was blocked with 5% skim milk in 0.05% TBS-Tween buffer and incubated at 4° C. overnight with a primary antibody specific to each protein. The membrane was then probed with an appropriate secondary antibody (Cell Signaling Technology, Danvers, USA). β-actin served as an endogenous control. The primary antibodies and dilution ratios were β-actin (Sigma-Aldrich; #A2228; 1:5000), NANOG (D73G4; Cell Signaling Technology; #4903; 1:1000), OCT4 (D705Z; Cell Signaling Technology; #75463; 1:500), SOX2 (EPR3131; Abcam, Cambridge, UK; #ab92494; 1:500), STAT3 (124H6; Cell Signaling Technology; #9139; 1:2000), pSTAT3 (D3A7; Cell Signaling Technology; #9145; 1:1000) and YAP1 (EP1674Y; Abcam, #ab52771; 1:2000).
To determine doses of these drugs that are effective for pathway inhibition, H1299 and H1437 cells were treated with verteporfin or S3I-201 for 72 hours.

**Q.** Which results are given for `C=Cc1c(C)c2cc3nc(cc4[nH]c(cc5nc(cc1[nH]2)C(C)=C5CCC(=O)O)c(CCC(=O)OC)c4C)[C@@]1(C)C3=CC=C(C(=O)OC)[C@H]1C(=O)OC` [verteporfin, 3-[(23S,24R)-14-ethenyl-5-(3-methoxy-3-oxopropyl)-22,23-bis(methoxycarbonyl)-4,10,15,24-tetramethyl-25,26,27,28-tetraazahexacyclo[16.6.1.13,6.18,11.113,16.019,24]octacosa-1,3,5,7,9,11(27),12,14,16,18(25),19,21-dodecaen-9-yl]propanoic acid]?
**A.** cancer stemness (cell proliferation, sphere formation, CSC markers) [1]: inhibit the development of cancer stemness; accumulation of intracellular lipid droplets (T24, BFTC905 and BFTC909): decreases the accumulation of intracellular lipid droplets; STAT3 oligomerization (high molecular weight complexes) (H1299 and H1437 cells): STAT3 oligomerization upon verteporfin treatment in a dose dependent manner; also recorded: high molecular weight complexes (regions surrounded by circles) were increased; YAP1 and total STAT3 protein expression (H1299 and H1437 cells): both YAP1 and total STAT3 expressions were suppressed; YAP1 and total STAT3 protein expression (H1299 and H1437 cells; listed as Verteporfin): suppressed YAP1 and STAT3 expressions in H1299 and H1437 cells in a concentration dependent manner
